This is an account of results in the NIST ThermoML archive (doi:10.1016/j.jct.2010.11.013).

± gives the expanded uncertainty stated by the source.

For series [1] the following is noted: 298.15 K; 101.33 kPa; Liquid; Vibrating tube method.
Series [2] in a line: refractive index (Na D-line) (dimensionless). The following applies: 298.15 K; 101.33 kPa; Liquid; Standard Abbe refractometry.

By mass density is commonly meant mass per unit of volume. What is called refractive index is a measure of how strongly the sample bends light. As to `Cc1ccccc1` [toluene], the mass density in series [1] worked out at 862.17 ± 0.11 kg/m3. Moreover, the refractive index in series [2] was found to be 1.49399 ± 0.00068.
For the compound `CCCCCC` [hexane], in series [1], the mass density was determined as 655.19 ± 0.26 kg/m3. Further, the refractive index in series [2] amounted to 1.37234 ± 0.0007.
On the same counts, the results for `CCCCCCCCC` [nonane] are 713.99 ± 0.25 kg/m3 and 1.40326 ± 0.0007.
Consider `CCCCCCC` [heptane], for which the mass density in series [1] was 679.56 ± 0.19 kg/m3. In series [2], the refractive index amounted to 1.38515 ± 0.00068.
Taken in the same sequence, the figures for `CCOS(=O)(=O)[O-].CCn1cc[n+](C)c1` [1-ethyl-3-methylimidazolium ethyl sulfate] were 1237.23 ± 0.43 kg/m3 and 1.4791 ± 0.0007.
Turning to `CCCCCCCC` [octane], in series [1], the mass density was 698.6 ± 0.18 kg/m3. Besides, in series [2], the refractive index worked out at 1.39519 ± 0.00068.
